In the NIST ThermoML archive (doi:10.1016/j.tca.2018.07.003):
± gives the expanded uncertainty stated by the source. Each block holds one compound with its values, some of them ahead of it.

Key:
[1] = 295 K; 77 kPa; Liquid; transient hot wire
[2] = wn = mass fraction of the nth substance listed; conditions: 295 K, 77 kPa, Liquid, transient hot wire
[3] = heat capacity at constant pressure per volume; wn = mass fraction of the nth substance listed; conditions: 295 K, 77 kPa, Liquid, From thermal conductivity and thermal effusivity measured separately

thermal conductivity [1]: 0.119 ± 0.004 W/m/K
SMILES: CCCCCCC [heptane]

thermal conductivity [1]: 0.208 ± 0.008 W/m/K
SMILES: CO [methanol]

thermal conductivity [1]: 0.096 ± 0.004 W/m/K
SMILES: CC(C)CC(C)(C)C [2,2,4-trimethylpentane]

thermal conductivity [1]: 0.289 ± 0.01 W/m/K
SMILES: OCC(O)CO [glycerol]

thermal conductivity [1]: 0.254 ± 0.01 W/m/K
SMILES: OCCO [1,2-ethanediol]

thermal conductivity ([2]; w2 = 0): 0.119 ± 0.004 W/m/K
heat capacity ([3]; w2 = 0): 1480000 ± 100000 J/K/m3
SMILES: CCCCCCC [heptane] + CC(C)CC(C)(C)C

thermal conductivity [1]: 0.6 ± 0.02 W/m/K
SMILES: O [water]

thermal conductivity ([2]; w1 = 0.2): 0.116 ± 0.004 W/m/K
thermal conductivity ([2]; w1 = 0.4): 0.113 ± 0.004 W/m/K
thermal conductivity ([2]; w1 = 0.6): 0.107 ± 0.004 W/m/K
thermal conductivity ([2]; w1 = 0.8): 0.104 ± 0.004 W/m/K
thermal conductivity ([2]; w1 = 1): 0.096 ± 0.004 W/m/K
heat capacity ([3]; w1 = 0.2): 1390000 ± 90000 J/K/m3
heat capacity ([3]; w1 = 0.4): 1310000 ± 90000 J/K/m3
heat capacity ([3]; w1 = 0.6): 1310000 ± 80000 J/K/m3
heat capacity ([3]; w1 = 0.8): 1290000 ± 80000 J/K/m3
heat capacity ([3]; w1 = 1): 1340000 ± 90000 J/K/m3
SMILES: CC(C)CC(C)(C)C [2,2,4-trimethylpentane] + CCCCCCC
